Measurements as given in patent publication US7659275B2, “Piperidinyl piperazine derivatives useful as inhibitors of chemokine receptors” (priority 2005, dated 2010).

Key:
[1] = tested on: HIV-1 YU-2 luciferase reporter virus in U87-CD4-CCR5 cells; assay: Luciferase Replication assay (HIV replication); format: cell-based; settings: Human immunodeficiency virus 1, U87/CD4/CCR5, 72 h, read-out: HIV Replication IC50 luciferase (nM, Yu-2)
Description: Luciferase Replication Assay:
Plasmids encoding the full length genome of HIV-1 pNL-4-Luc with the gp 120 V-3 loop replaced by the Bgl II fragment of HIV-1 ADA, YU-2 or HxB (ADA-Luc-FL, YU-2-Luc-FL and HxB-Luc-FL) were obtained from Dr. Susan Pontow (Washington University, St. Louis Mo.). Replication-competent luciferase reporter virus stocks were generated by transfection of plasmids into 293T cells using Superfect (Qiagen) or Mirus transfection reagents. Viral stocks were collected 48 hours following transfection and titered for luciferase production on U-87-CCR5 or CXCR4 cells. U87-CD4-CCR5 cells ([…]) were plated in 96-well cell culture plates and incubated overnight. Media was removed and replaced with 50 μl of fresh culture media (DMEM, 10% FCS) and 50 μl of compound diluted in culture medium. Cells were incubated with compound at 37° C. for 1 hour. The resultant supernatant was removed and replaced with 20 μl of media containing compound and infected with an equal volume of diluted or undiluted virus stock at 37° C. for 3-4 hours. The cells were washed once with DMEM, and 200 μl of media containing compound was added. The cultures were incubated for 3 days, the cells lysed in luciferase lysis buffer (Promega, Madison, Wis.) and transferred to Immulon plates (Dynex Technologies, Chantilly Va.). An equal volume of luciferase substrate (Promega, Madison Wis.) was added to lysates and the plates read immediately in a Wallac Luminometer. Fifty and ninety percent inhibitory concentrations were determined using GraphPad PRISM software.

| Compound | IC50 [1] [nM] | melting point [°C] |
| --- | --- | --- |
| COC[C@@H](c1ccc(C(F)(F)F)cc1)N1CCN(C2(C)CCN(C(=O)c3c(C)nn(O)c3C)CC2)C[C@@H]1C | 8 |  |
| COC[C@@H](c1ccc(C(F)(F)F)cc1)N1CCN(C2(C)CCN(C(=O)c3c(C)nn(OCc4ccccc4)c3C)CC2)C[C@@H]1C | 0.4 |  |
| Cc1nn(O)c(C)c1C(=O)N1CCC(C)(N2CCN([C@@H](c3cccc(F)c3)C3CCN(S(=O)(=O)C4CC4)CC3)[C@@H](C)C2)CC1 | 43 | 214 to 215 |
| CC[C@@H](c1ccc(C(F)(F)F)cc1)N1CCN(C2(C)CCN(C(=O)c3c(C)nn(O)c3C)CC2)C[C@@H]1C | > 100 |  |
